Reference: patent US4971964A, “Pyridine derivatives” (priority 1988, dated 1990)

How the values were obtained:
[1] = target: T1, thromboxane synthase (TXA2 synthase), bovine platelet microsome (Bos taurus, UniProt Q2KIG5); assay: Test on Inhibition of TXA2 Biosynthesis (bovine platelet microsome, TXB2 by radioimmunoassay); format: biochemical; conditions: for IC50: bovine platelet microsome, pH 7.4, prostaglandin H2 substrate
T1 construct: bovine platelet microsome; from tissue; host or cells: bovine platelets (microsome)
T1 sequence (Q2KIG5 1-533): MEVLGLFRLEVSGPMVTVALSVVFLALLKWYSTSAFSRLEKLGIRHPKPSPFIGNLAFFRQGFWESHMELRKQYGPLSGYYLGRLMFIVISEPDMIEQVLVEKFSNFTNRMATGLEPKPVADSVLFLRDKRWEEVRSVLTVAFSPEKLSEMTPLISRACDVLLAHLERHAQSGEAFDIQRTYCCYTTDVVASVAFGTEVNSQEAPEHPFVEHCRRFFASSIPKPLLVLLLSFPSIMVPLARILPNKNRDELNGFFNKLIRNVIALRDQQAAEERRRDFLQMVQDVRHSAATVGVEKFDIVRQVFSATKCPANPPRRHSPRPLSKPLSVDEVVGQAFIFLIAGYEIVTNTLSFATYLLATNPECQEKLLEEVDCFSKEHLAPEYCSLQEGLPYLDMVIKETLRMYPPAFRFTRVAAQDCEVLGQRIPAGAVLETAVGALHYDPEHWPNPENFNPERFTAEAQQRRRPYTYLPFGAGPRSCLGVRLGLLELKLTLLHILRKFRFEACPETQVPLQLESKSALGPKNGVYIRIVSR
Procedure: A mixture of 70 μl of bovine platelet microsome [protein: 40 μg; 100 mM tris-HCl buffer (pH=7.4)] and 10 μl of a test compound solution (100 mM tris-HCl buffer containing 10% methanol) was allowed to stand at 0° C. for 5 minutes, and 20 μl of a prostaglandin H2 solution (100 mM tris-HCl buffer supplemented with acetone containing 0.1 nmol of prostaglandin H2) was added thereto as a substrate.
The amount of thromboxane B2 (TXB2) (stable degradation product of TXA2) produced in the system was determined by radioimmunoassay [F. A. Fitzpatrick et al., Methods in Enzymology, Vol. 86, p.286 (1982)].
Inhibition of TXB2 synthesis was evaluated by IC50 (50% inhibitory concentration) or percent inhibition as calculated from equation described below, and the results obtained are shown in Table 1. [formula]

dd male mice = assay: Acute Toxicity Test (minimum lethal dose, MLD); format: in vivo
Procedure: A test compound was given to dd male mice weighing 20±1 g (3 mice per group) per os. (p.o.; 300 mg/kg) or intraperitoneally (i.p.; 100 mg/kg). The mortality after 7 days from the administration was considered to determine the minimum lethal dose (MLD).

[2] = test system: silver nitrate-induced arteriothromboembolia in male Wistar-Shizuoka rats; assay: Test on Inhibition of Silver Nitrate-Induced Arteriothromboembolia in Rats; format: in vivo; conditions: for Number of Obstruction Case/Number of Experiments: control 23/26; for Percent Obstruction: control 88%; for percent obstruction vs control (in words): I-12Z 0.3, 1.0, or 3.0 mg/kg, I-13E 3 mg/kg
Source text: Male Wistar -Shizuoka rats weighing 270±20 g were anesthetized with urethane (1.5 g/kg) intraperitoneally. Each animal was fixed on its back, and a venous cannula and an arterial cannula were inserted into the left carotid vein and the left femoral artery, respectively. An abdominal incision was made, the intestinal tract was put aside so that the descending abdominal aorta could be seen, the surrounding connective tissues were removed, the descending aorta was detached to a length of about 1 cm, and the detached descending aorta was put on a globe of 8 cm in diameter. A solvent (0.1 ml; physiological saline containing 0.05N sodium hydroxide) or a drug solution (0.1 ml) in the solvent was injected via the cannulated carotid vein per 100 g of body weight. Three minutes later, a 30% silver nitrate aqueous solution was dropped on the detached descending abdominal aorta. Five minutes later, the globe was removed, and the affected site was washed three times with physiological saline to stop the reaction. After the elapse of 30 minutes from the stopping of the reaction, the blood pressure of the femoral artery was measured, and the pressure fall was taken as an indication of obstruction of the descending arterial. Significance of the difference in degree of the obstruction between the control group (only the solvent was administered) and the test group was assayed by X^2 -assay.

[3] = test system: collagen-induced ischemic ECG alterations in spontaneous hypertensive rats (SHR); assay: Test On Inhibition of Collagen-Induced Ischemic Alterations of Electrocardiogram; format: in vivo; conditions: 1 mg/kg, iv; for Change of ECG (score 0-3): mean ± standard error, N = 5 to 6
Procedure: Spontaneous hypertensive rats (SHR) (male; 25-30-week-old; available from Hoshino Jikken Dobutsu) were intraperitoneally anesthesized with sodium pentobarbital (60 mg/kg). Each animal was fixed on its back, a venous cannula was inserted into the left jugular vein, and electrocardiograms (ECG) in extremity leads II were taken. A solvent alone (physiological saline containing 0.05N sodium hydroxide) or the test compound (I-12Z or I-13E) dissolved in the same solvent was intravenously administered in an amount of 0.1 ml per 100 g of body weight. Three minutes later, 4.5 mg/kg of collagen III originating from the bovine skin was intravenously injected, and the changes of the ECG were observed over 10 minutes. The ischemic ECG alterations after the intravenous injection of collagen were scored based on the following system according to the method of Matsumura et al., Folia Pharmacol., Japon, and the significance of difference in scores of the control group receiving the solvent alone and the test group was examined by the U-test of Mann-Whitney.
0 . . . Changes of 0.05 mV or less in the S-T segment or the T wave
1 . . . Changes between 0.05 and 0.1 mV in the S-T segment or the T wave
2 . . . Changes of 0.1 mV or more in the S-T segment or the T wave
3 . . . Arrythmia or cardiac arrest

[4] = dd male mice, mortality after 7 days
[5] = 0.5 min after collagen injection
[6] = 10 min after collagen injection

SMILES: COC1=Nc2ccncc2/C(=C/CCCCC(=O)O)c2ccccc21 [Compound I-13E, (E)-11-(5-Carboxypentylidene)-6-methoxy-11H-pyrido[4,3-c][2]benzazepin]
- IC50 [1]: 8.4 nM
- Acute Toxicity (MLD) ip (dd male mice; [4]): > 100 mg/kg
- Acute Toxicity (MLD) po (dd male mice; mouse, in vivo, 10080 min): > 300 mg/kg
- Number of Obstruction Case/Number of Experiments ([2]; 1.0 mg/kg i.v.): 3/4
- Percent Obstruction ([2]; 1.0 mg/kg i.v.): 75%
- Number of Obstruction Case/Number of Experiments ([2]; 3.0 mg/kg i.v.): 1/5
- Percent Obstruction ([2]; 3.0 mg/kg i.v.): 20%
- percent obstruction vs control (in words) ([2]; i.v.): significantly lower than that of the control group
- ECG changes vs control (in words) [3]: significantly smaller than those in the control groups
- Change of ECG (score 0-3) [3, 5]: 0 ± 0
- Change of ECG (score 0-3) ([3]; 1 min after collagen injection): 0.2 ± 0.2
- Change of ECG (score 0-3) ([3]; 2 min after collagen injection): 0.2 ± 0.2
- Change of ECG (score 0-3) ([3]; 3 min after collagen injection): 0.2 ± 0.2
- Change of ECG (score 0-3) ([3]; 4 min after collagen injection): 0.6 ± 0.4
- Change of ECG (score 0-3) ([3]; 5 min after collagen injection): 0.2 ± 0.2
- Change of ECG (score 0-3) ([3]; 6 min after collagen injection): 0.4 ± 0.2
- Change of ECG (score 0-3) ([3]; 7 min after collagen injection): 0.4 ± 0.2
- Change of ECG (score 0-3) ([3]; 8 min after collagen injection): 0.4 ± 0.2
- Change of ECG (score 0-3) ([3]; 9 min after collagen injection): 0.4 ± 0.2
- Change of ECG (score 0-3) [3, 6]: 0.2 ± 0.2

SMILES: CSC1=Nc2ccccc2C(=CCCCCC(=O)O)c2ccncc21 [Compound I-18, 5-(5-Carboxypentylidene)-11-thiomethyl-5H-pyrido[3,4-c][1]benzazepin]
- IC50 [1]: 100 nM
- Acute Toxicity (MLD) ip (dd male mice; [4]): > 100 mg/kg
- Acute Toxicity (MLD) po (dd male mice; [4]): > 300 mg/kg

SMILES: CN1C(=O)c2ccncc2/C(=C\CCCCC(=O)O)c2ccccc21 [Compound I-12Z, (Z)-11-(5-carboxypentylidene)-6-methyl-5,11-dihydropyrido[4,3-c][1]benzazepin-5(6H)-one]
- IC50 [1]: 34 nM
- Acute Toxicity (MLD) ip (dd male mice; [4]): > 100 mg/kg
- Acute Toxicity (MLD) po (dd male mice; [4]): > 300 mg/kg
- Number of Obstruction Case/Number of Experiments ([2]; 0.1 mg/kg i.v.): 4/6
- Percent Obstruction ([2]; 0.1 mg/kg i.v.): 67%
- Number of Obstruction Case/Number of Experiments ([2]; 0.3 mg/kg i.v.): 1/5
- Percent Obstruction ([2]; 0.3 mg/kg i.v.): 20%
- Number of Obstruction Case/Number of Experiments ([2]; 1.0 mg/kg i.v.): 0/5
- Percent Obstruction ([2]; 1.0 mg/kg i.v.): 0%
- Number of Obstruction Case/Number of Experiments ([2]; 3.0 mg/kg i.v.): 1/5
- Percent Obstruction ([2]; 3.0 mg/kg i.v.): 20%
- percent obstruction vs control (in words) ([2]; i.v.): significantly lower than that of the control group
- inhibition of obstruction vs comparative drugs CV-4151 and OKY-1581 (in words) ([2]; i.v.): inhibition of obstruction at lower doses as compared with the comparative drugs, CV-4151 and OKY-1581
- ECG changes vs control (in words) [3]: significantly smaller than those in the control groups
- Change of ECG (score 0-3) [3, 5]: 0.8 ± 0.5
- Change of ECG (score 0-3) ([3]; 1 min after collagen injection): 0.5 ± 0.2
- Change of ECG (score 0-3) ([3]; 2 min after collagen injection): 1.0 ± 0.4
- Change of ECG (score 0-3) ([3]; 3 min after collagen injection): 0.8 ± 0.3
- Change of ECG (score 0-3) ([3]; 4 min after collagen injection): 0.7 ± 0.2
- Change of ECG (score 0-3) ([3]; 5 min after collagen injection): 0.2 ± 0.2
- Change of ECG (score 0-3) ([3]; 6 min after collagen injection): 0.3 ± 0.2
- Change of ECG (score 0-3) ([3]; 7 min after collagen injection): 0.5 ± 0.2
- Change of ECG (score 0-3) ([3]; 8 min after collagen injection): 0.5 ± 0.2
- Change of ECG (score 0-3) ([3]; 9 min after collagen injection): 0.4 ± 0.2
- Change of ECG (score 0-3) [3, 6]: 0.3 ± 0.2

SMILES: O=C(O)CCCC/C=C1\c2cnccc2NC(=O)c2ccccc21 [Compound I-14Z, (Z)-11-(5-Carboxypentylidene)-6,11-dihydropyrido[4,3-c][2]benzazepin-6(5H)-one]
- IC50 [1]: 451 nM
- Acute Toxicity (MLD) ip (dd male mice; [4]): > 100 mg/kg
- Acute Toxicity (MLD) po (dd male mice; [4]): > 300 mg/kg

SMILES: O=C(O)CCCC=C1c2ccccc2NC(=O)c2ccncc21 [Compound I-4, 11-(4-Carboxybutylidene)-5,11-dihydropyrido[4,3-c][1]-benzazepin-5(6H)-one]
- IC50 [1]: 250 nM
- Acute Toxicity (MLD) ip (dd male mice; [4]): > 100 mg/kg
- Acute Toxicity (MLD) po (dd male mice; [4]): > 300 mg/kg

SMILES: O=C(O)CCCC/C=C1/c2cnccc2NC(=O)c2ccccc21 [Compound I-14E, (E)-11-(5-Carboxypentylidene)-6,11-dihydropyrido[4,3-c][2]benzazepin-6(5H)-one]
- IC50 [1]: 22 nM
- Acute Toxicity (MLD) ip (dd male mice; [4]): > 100 mg/kg
- Acute Toxicity (MLD) po (dd male mice; [4]): > 300 mg/kg

SMILES: CSC1Nc2ccccc2C(=CCCCCC(=O)O)c2ccncc21 (stereo not drawn) [Compound I-22, 5-(5-Carboxypentylidene)-11-thiomethyl-5H-10,11-dihydropyrido[3,4-c][1]benzazepin]
- inhibition at 10 µM [1]: 27%
- Acute Toxicity (MLD) ip (dd male mice; [4]): > 100 mg/kg
- Acute Toxicity (MLD) po (dd male mice; [4]): > 300 mg/kg

SMILES: COC1=Nc2ccncc2/C(=C\CCCCC(=O)O)c2ccccc21 [Compound I-13Z, (Z)-11-(5-carboxypentylidene)-6-methoxy-11H-pyrido[4,3-c][2]benzazepin]
- IC50 [1]: 3.5 nM
- Acute Toxicity (MLD) ip (dd male mice; [4]): > 100 mg/kg
- Acute Toxicity (MLD) po (dd male mice; [4]): > 300 mg/kg
